From patent publication US20060019966A1, “Method for treating nervous system disorders and conditions” (Wyeth, priority 2004, published 2006)

Tests used:
hSERT = target: T1, hSERT (Homo sapiens, UniProt P31645); assay: Serotonin (5-HT) uptake assay, hSERT function uptake; type: cell-based; settings: JAR cells, [3H]5-HT uptake
T1 construct: The methods for 5-HT functional reuptake using the JAR cell line; host or cells: JAR (human placental choriocarcinoma), staurosporine-stimulated
Description: (§1) The JAR cell line (human placental choriocarcinoma) may be purchased from ATCC (Cat. No. HTB-144). […] For all assays, cells may be plated in Wallac 96-well sterile plates (PerkinElmer, Cat. No. 3983498).
The methods for 5-HT functional reuptake using the JAR cell line is modified using a previous literature report (Prasad, et al., Placenta, 1996. 17(4): 201-7). […] On day 2, cells are stimulated with staurosporine (40 nM) to increase the expression of the 5-HT transporter. On day 3, cells are removed from the cell incubator two hours prior to assay and maintained at room temperature to equilibrate the growth medium to ambient oxygen concentration. […] Data from these wells are used to define non-specific 5-HT uptake (minimum 5-HT uptake). Test compounds are prepared in DMSO (10 mM) and diluted in assay buffer according to test range (1 to 1,000 nM). Twenty-five microliters of assay buffer (maximum 5-HT uptake) or test compound are added directly to triplicate wells containing cells in 200 μl of assay buffer. The cells are incubated with the compound for 10 minutes (37° C.). To initiate the reaction, [^3H]hydroxytryptamine creatinine sulfate diluted in assay buffer is delivered in 25 μl aliquots to each well for a final test concentration of 15 nM. The cells are incubated with the reaction mixture for 5 minutes at 37° C. The 5-HT uptake reaction is terminated by decanting the assay buffer.

[1] = target: T2, recombinant human dopamine transporter (hDAT) (Homo sapiens, UniProt Q01959); assay: Dopamine uptake transporter binding assay (3H-WIN 35,428); settings: inhibition of 3H-WIN 35,428 binding to hDAT membranes
T2 construct: purchased PerkinElmer RBHDATM

hNET = target: T3, hNET (Homo sapiens, UniProt P23975); assay: Norepinephrine (NE) uptake assay, hNET function uptake; type: cell-based; settings: MDCK-Net6 cells, [3H]NE uptake
T3 construct: expressed in transfected cells; host or cells: MDCK-Net6 (MDCK cells stably transfected with hNET)
Description: as §1
Test compounds are prepared in DMSO (10 mM) and diluted in assay buffer according to test range (1 to 10,000 nM). Twenty-five microliters of assay buffer (maximum NE uptake) or test compound are added directly to triplicate wells containing cells in 200 μl of assay buffer. […] To initiate the NE uptake, [^3H]NE diluted in assay buffer (120 nM final assay concentration) is delivered in 25 μl aliquots to each well and the plates is incubated for 5 minutes (37° C.).

[2] = system: tail skin temperature (TST) in ovariectomized (OVX) rats; assay: Telemetry rat model of ovariectomy-induced thermoregulatory dysfunction; type: in vivo; settings: 30 mg/kg, sc, single dose
Text: Telemetry model: This model has been modified from a previously reported protocol describing estrogen regulation of diurnal tail skin temperature (TST) patterns (Berendsen, et al., European Journal of Pharmacology, 2001, 419(1): 47-54). […] In ovariectomized (OVX) rats, TST is elevated over the entire 24-hour period, thus the usual decrease in TST during the active (dark) phase is lost, thus, a compound's ability to restore this lowering of TST during the active phase was examined. […] After a 7-day recovery period, TST readings were continuously recorded for the remainder of the study. Tail skin temperature readings were collected from each animal every 5 minutes with values obtained over a 10 second sampling period. The day before test day, an average baseline TST value was calculated for each animal by averaging temperature readings recorded during the 12 hour active (dark) phase. […]
Statistical analysis: Evaluation of a compound's ability to restore normal lowering of TST in the telemetry model was analyzed using hourly TST values calculated for each animal by averaging the 12 temperature readings obtained every 5 minutes over that recording time. […]

T1 sequence (P31645 whole entry): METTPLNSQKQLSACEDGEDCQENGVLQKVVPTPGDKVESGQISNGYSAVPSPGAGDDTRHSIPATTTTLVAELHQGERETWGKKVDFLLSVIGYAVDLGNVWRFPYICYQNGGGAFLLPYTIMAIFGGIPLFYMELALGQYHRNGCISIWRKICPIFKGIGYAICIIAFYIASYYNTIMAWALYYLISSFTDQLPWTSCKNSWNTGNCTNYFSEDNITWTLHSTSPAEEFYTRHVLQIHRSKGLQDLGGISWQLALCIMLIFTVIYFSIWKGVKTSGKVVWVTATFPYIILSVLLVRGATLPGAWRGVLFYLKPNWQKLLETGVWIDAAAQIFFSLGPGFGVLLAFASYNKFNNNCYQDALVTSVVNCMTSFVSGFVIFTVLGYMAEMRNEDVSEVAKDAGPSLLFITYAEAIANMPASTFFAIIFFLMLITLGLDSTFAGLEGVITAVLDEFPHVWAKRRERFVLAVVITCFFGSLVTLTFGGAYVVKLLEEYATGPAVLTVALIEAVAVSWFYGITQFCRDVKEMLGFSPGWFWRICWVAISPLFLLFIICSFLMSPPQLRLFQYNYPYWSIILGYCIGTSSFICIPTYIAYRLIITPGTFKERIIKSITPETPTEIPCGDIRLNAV
T3 sequence (P23975 whole entry): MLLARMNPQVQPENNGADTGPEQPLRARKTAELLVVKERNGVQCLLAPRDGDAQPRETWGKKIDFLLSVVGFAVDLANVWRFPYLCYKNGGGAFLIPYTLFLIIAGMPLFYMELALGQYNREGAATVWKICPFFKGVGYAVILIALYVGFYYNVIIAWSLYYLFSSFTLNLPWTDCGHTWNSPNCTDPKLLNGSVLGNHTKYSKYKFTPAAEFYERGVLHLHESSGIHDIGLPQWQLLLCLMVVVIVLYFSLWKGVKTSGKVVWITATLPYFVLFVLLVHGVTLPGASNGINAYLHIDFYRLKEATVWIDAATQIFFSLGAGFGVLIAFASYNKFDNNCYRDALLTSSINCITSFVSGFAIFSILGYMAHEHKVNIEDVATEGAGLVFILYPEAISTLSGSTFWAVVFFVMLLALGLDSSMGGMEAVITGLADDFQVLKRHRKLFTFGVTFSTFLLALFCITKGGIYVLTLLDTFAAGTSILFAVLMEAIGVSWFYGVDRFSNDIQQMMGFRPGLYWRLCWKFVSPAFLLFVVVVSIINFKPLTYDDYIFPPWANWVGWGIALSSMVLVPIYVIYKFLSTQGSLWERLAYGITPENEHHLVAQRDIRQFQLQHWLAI
T2 sequence (Q01959 whole entry): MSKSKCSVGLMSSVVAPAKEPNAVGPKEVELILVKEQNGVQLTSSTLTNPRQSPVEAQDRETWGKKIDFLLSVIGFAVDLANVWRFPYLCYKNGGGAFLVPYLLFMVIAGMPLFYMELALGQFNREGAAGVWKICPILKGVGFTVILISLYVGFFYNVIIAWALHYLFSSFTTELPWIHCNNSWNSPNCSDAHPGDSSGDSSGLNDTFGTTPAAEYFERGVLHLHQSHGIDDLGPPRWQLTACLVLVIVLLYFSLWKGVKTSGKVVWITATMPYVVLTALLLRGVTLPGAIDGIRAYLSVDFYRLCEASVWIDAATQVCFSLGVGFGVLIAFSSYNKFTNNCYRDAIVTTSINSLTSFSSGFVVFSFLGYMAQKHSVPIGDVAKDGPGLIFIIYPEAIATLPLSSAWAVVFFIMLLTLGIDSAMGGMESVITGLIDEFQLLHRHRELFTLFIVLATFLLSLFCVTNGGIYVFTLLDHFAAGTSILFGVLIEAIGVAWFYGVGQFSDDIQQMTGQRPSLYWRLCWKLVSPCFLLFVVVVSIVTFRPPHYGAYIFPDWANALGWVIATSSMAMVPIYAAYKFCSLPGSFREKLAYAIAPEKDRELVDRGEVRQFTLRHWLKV

Row | Compound | EC50 (hSERT) | hDAT binding (% I at 10 μM) [1] | EC50 (hNET) | effect on tail skin temperature (TST) [2]
1 | Cc1ccc(C23CNCC2C3)cc1 (single isomer, unassigned; (-)) [(−)-1-(4-methylphenyl)-3-azabicyclo[3.1.0]hexane] | 0.977 µM | 55% | 1.18 µM | restored normal TST
2 | Fc1ccc(C(OCCN2CCN(CCCc3ccccc3)CC2)c2ccc(F)cc2)cc1 [1-[2-[bis(4-fluorophenyl)methoxy]ethyl]-4-(3-phenylpropyl)piperazine, reference compound] |  |  |  | restored normal TST
